Results from patent US8815903B2, “Indole derivative and pharmacologically acceptable salt thereof” (Kissei Pharmaceutical Co., Ltd., priority 2011, dated 2014).

Target: T1, rat EP1 receptor (Rattus norvegicus, UniProt P70597)
T1 construct: expressed in transfected cells
T1 sequence (P70597 1-405): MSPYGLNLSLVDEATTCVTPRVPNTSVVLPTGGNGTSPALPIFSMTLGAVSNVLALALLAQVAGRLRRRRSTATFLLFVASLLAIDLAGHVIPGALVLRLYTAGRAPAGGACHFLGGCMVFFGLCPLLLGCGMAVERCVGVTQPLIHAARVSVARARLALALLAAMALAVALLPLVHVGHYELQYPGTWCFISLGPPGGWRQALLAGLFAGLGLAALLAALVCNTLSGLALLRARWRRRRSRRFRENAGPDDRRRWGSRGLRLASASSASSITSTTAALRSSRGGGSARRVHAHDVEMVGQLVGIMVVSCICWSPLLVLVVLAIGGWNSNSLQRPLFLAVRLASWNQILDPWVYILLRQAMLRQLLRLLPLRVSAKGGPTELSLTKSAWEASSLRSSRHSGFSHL
Test: Test for confirmation of EP1 receptor antagonism (inhibition of PGE2-induced increase in intracellular calcium concentration)
Assay type: cell-based
Conditions: rat EP1 receptor-expressing COS-1 cells; prostaglandin E2 10 nM; fluorescent calcium indicator, FDSS 7000
Method: Test for Confirmation of EP1 Receptor Antagonism
(1) Preparation of Rat EP1 Expression Vector
Using Rat Kidney BD Marathon-Ready cDNA (Nippon Becton Dickinson Company, Ltd.) as a template, a forward primer shown in (SEQ ID NO:1), and a reverse primer shown in (SEQ ID NO:2), a first run of PCR was carried out using KOD-Plus-Ver 2.0 (Toyobo Co., Ltd.). Further, using this amplification product as a template, a forward primer shown in (SEQ ID NO:3), and a reverse primer shown in (SEQ ID NO:4), a second run of PCR was carried out in the same manner. The amplification product obtained by the second run of PCR was incorporated into a vector (pcDNA3.1 D/V5-His-TOPO (registered trademark), Invitrogen Japan K. K.). By a conventional method, the vector containing this amplification product was introduced to E. coli (One Shot TOP 10 Competent Cells, Invitrogen Corporation) to transform. This transformed E. coli was cultured in an LB agar medium for one day. After the culture, colonies were selected and cultured in an LB liquid medium containing 50 μg/mL of ampicillin. After the culture, the vector was purified using a QIAprep Spin Miniprep Kit (Qiagen K. K.). The base sequence of the insertion site of this vector (SEQ ID NO:5) was compared with the rat EP1 base sequence (Ptger1) registered as Accession No. NM_013100 in publicly-known database (NCBI), and as a result, they all matched except for a single base. Further, the amino acid sequence translated by the base sequence completely matched the amino acid sequence of the rat EP1 receptor registered as an NCBI Accession No. NP_037232. Therefore, it was confirmed that the cloned gene sequence was a base sequence of the rat EP1 receptor and the obtained amino acid sequence was that of the rat EP1 receptor. The pcDNA3.1 D/V5-His-TOPO (registered trademark) to which the nucleic acid shown in (SEQ ID NO:5) had been inserted was taken as a rat EP1-expressing vector.
(2) Preparation of Rat EP1 Receptor-Expressing Cells
COS-1 cells (Dainippon Sumitomo Pharma Co., Ltd.) were cultured until they reached confluence in an incubator at 37° C. under a 5% CO2 gas condition, using a D-MEM liquid medium (high glucose and L-glutamine contained, Invitrogen Corporation) to which a penicillin-streptomycin solution (Invitrogen Corporation, final concentration: 100 U/mL as benzylpenicillin; 100 μg/mL as streptomycin) as an antibiotic, MEM nonessential amino acids (Invitrogen Corporation, final concentration: 0.1 mM), and fetal calf serum (Sanko Junyaku Co., Ltd., final concentration: 10%) were added.
The cells that had reached confluence were stripped with 0.05% trypsin/0.53 mM EDTA.4Na, and resuspended in a D-MEM liquid medium (high glucose and L-glutamine contained, Invitrogen Corporation) to which an MEM nonessential amino acid (final concentration: 0.1 mM) and fetal calf serum (final concentration: 10%) were added. In each well of a Poly D-lysine-coated 96-well microplate (BD BioCoat (registered trademark), Nippon Becton Dickinson Company, Ltd.), this resuspended cell suspension culture was prepared to be 5×10^4 cells/well in 100 μL of the liquid medium, and 100 μL of the cell suspension was seeded on each well. After seeding, the cells were cultured in an incubator at 37° C. under a 5% CO2 gas condition. At a point when the cells for introduction of a rat EP1-expressing vector were adhered (about 2 hours after seeding), introduction of the rat EP1-expressing vector was carried out in the following order.
For introduction of the rat EP1-expressing vector, Lipofectamine 2000 (Invitrogen Japan K. K.) was used. The rat EP1-expressing vector was diluted with OPTI-MEM (registered trademark) I Reduced-Serum Medium (Invitrogen Japan K. K.) to 200 ng/25 μL/well, and at the same time, Lipofectamine 2000 (Invitrogen Japan K. K.) was also diluted with OPTI-MEM (registered trademark) I Reduced-Serum Medium (Invitrogen Japan K. K.) to 0.5 μL/25 μL/well, followed by incubation at room temperature for 5 minutes. […]

Structure (SMILES)	IC50
COc1ccc2c(Cc3cccc(C(=O)NS(C)(=O)=O)n3)c(-c3ccsc3)[nH]c2c1 [Example 1, N-Methanesulfonyl-6-(6-methoxy-2-thiophen-3-yl-1H-indol-3-ylmethyl)pyridine-2-carboxamide]	99 nM
COc1ccc2c(Cc3cccc(C(=O)NS(=O)(=O)c4ccccc4)n3)c(-c3ccccc3)[nH]c2c1 [Example 3-3]	30 nM
CCCS(=O)(=O)NC(=O)c1cccc(Cc2c(-c3ccccc3)[nH]c3cc(OC)ccc23)n1 [Example 3-4]	39 nM
CCCS(=O)(=O)NC(=O)c1cccc(Cc2c(C(C)(C)C)[nH]c3cc(OC)c(Cl)cc23)n1 [Example 3-5]	55 nM
CCS(=O)(=O)NC(=O)c1cccc(Cc2c(C(C)(C)C)[nH]c3cc(OC)c(Cl)cc23)n1 [Example 3-7]	33 nM
COc1ccc2c(Cc3cccc(C(=O)NS(=O)(=O)C4CC4)n3)c(-c3ccccc3)[nH]c2c1 [Example 3-10]	47 nM
COc1ccc2c(Cc3cccc(C(=O)NS(=O)(=O)c4ccccc4)n3)c(C(C)(C)C)[nH]c2c1 [Example 3-11]	17 nM
Cc1ccc2c(Cc3cccc(C(=O)NS(C)(=O)=O)n3)c(-c3ccsc3)[nH]c2c1 [Example 3-12]	27 nM
COc1ccc2c(Cc3cccc(C(=O)NS(=O)(=O)C(C)C)n3)c(-c3ccccc3)[nH]c2c1 [Example 3-13]	27 nM
COc1ccc2c(Cc3cccc(C(=O)NS(C)(=O)=O)n3)c(-c3ccc(F)cc3)[nH]c2c1 [Example 3-14]	88 nM
CCS(=O)(=O)NC(=O)c1cccc(Cc2c(-c3ccc(F)cc3)[nH]c3cc(OC)ccc23)n1 [Example 3-15]	27 nM
COc1ccc2c(Cc3cccc(C(=O)NS(C)(=O)=O)n3)c(-c3csc(C)c3)[nH]c2c1 [Example 3-20]	68 nM
CCS(=O)(=O)NC(=O)c1cccc(Cc2c(-c3csc(C)c3)[nH]c3cc(OC)ccc23)n1 [Example 3-21]	86 nM
CCS(=O)(=O)NC(=O)c1cccc(Cc2c(-c3ccoc3)[nH]c3cc(OC)ccc23)n1 [Example 3-23]	58 nM
CCS(=O)(=O)NC(=O)c1cccc(Cc2c(-c3ccccc3)[nH]c3cc(Cl)ccc23)n1 [Example 3-24]	58 nM
CS(=O)(=O)NC(=O)c1cccc(Cc2c(-c3ccccc3)[nH]c3cc(Cl)ccc23)n1 [Example 3-25]	78 nM
Cc1cc2[nH]c(-c3ccccc3)c(Cc3cccc(C(=O)NS(C)(=O)=O)n3)c2cc1C [Example 3-30]	43 nM
CCS(=O)(=O)NC(=O)c1cccc(Cc2c(-c3ccccc3)[nH]c3cc(C)c(C)cc23)n1 [Example 3-31]	47 nM
CCS(=O)(=O)NC(=O)c1cccc(Cc2c(-c3ccccc3)[nH]c3cc(OC)c(F)cc23)n1 [Example 3-32]	51 nM
CCS(=O)(=O)NC(=O)c1cccc(Cc2c(-c3ccccc3)[nH]c3cc(C4CC4)ccc23)n1 [Example 3-33]	66 nM
CCS(=O)(=O)NC(=O)c1cccc(Cc2c(-c3ccccc3)[nH]c3cc(C)ccc23)n1 [Example 3-34]	40 nM
COc1ccc2c(Cc3cccc(-c4nnn[nH]4)n3)c(-c3ccsc3)[nH]c2c1 [Example 5-4]	12 nM
COc1ccc2c(Cc3cccc(-c4nnn[nH]4)c3)c(-c3ccccc3)[nH]c2c1 [Example 5-6]	45 nM
COc1cc2[nH]c(-c3ccccc3)c(Cc3cccc(-c4nnn[nH]4)n3)c2cc1F [Example 5-8]	12 nM
COc1ccc2c(Cc3cccc(-c4nnn[nH]4)n3)c(-c3ccc(F)cc3)[nH]c2c1 [Example 5-9]	22 nM
COc1ccc2c(Cc3cccc(-c4nnn[nH]4)n3)c(-c3cccnc3)[nH]c2c1 [Example 5-10]	13 nM
COc1ccc2c(Cc3cccc(-c4nnn[nH]4)n3)c(-c3csc(C)c3)[nH]c2c1 [Example 5-12]	26 nM
Cc1ccc2c(Cc3cccc(-c4nnn[nH]4)n3)c(-c3ccsc3)[nH]c2c1 [Example 5-13]	30 nM
